Measured values from PubChem BioAssay AID2060484 (Molecular Pharmacology Branch, DTP, NCI, 2025).

System: SUM149PT spheroids with HUVEC/MSC, viability
Experiment: Anticancer human tumor SUM149PT cell line growth inhibition [GQUAD];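 note: spheroids exposed to drugs for seven days before readout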;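 for viability, T/C: percent viability relative to DMSO vehicle control taken as 100%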
Conditions: for IC50: curve of first compound; for viability, T/C: stronger effect = lower value
Excerpt: DNA G-quadruplex Stabilizer Agents in Combinations in Complex Spheroids
A high-throughput screen of multi-cell type tumor spheroids was designed to identify active combinations of DNA G-quadruplex stabilizer agents and targeted small molecules. Complex spheroids include a stromal component modeled by human endothelial cells (HUVEC) and fibroblasts modeled by human mesenchymal stem cells (MSCs). The concentration ranges selected for each drug and investigational agent were based upon clinically achievable concentrations if the clinical Cmax of the agent was known.
Compounds. The drugs and investigational agents: pidnarulex (CX-5461; NSC782164), APTO-253 (NSC789042), BRACO-19 (NSC847499), peposertib (NSC802822), ceralasertib (NSC780249), elimusertib (NSC800525), camonsertib (NSC841442), AZD-1390 (NSC803789), olaparib (NSC753686), talazoparib (NSC767125), ART-558 (NSC835418), sotorasib (NSC818433), MRTX-1133 (NSC836407), SN-38 (NSC673596), topotecan (NSC609699), etoposide (NSC141540), doxorubicin (NSC123127), gemcitabine (NSC613327), 5-fluorouracil (NSC19893), paclitaxel (NSC125973), vemurafenib (NSC761431), panobinostat (NSC761190), R-306465 (JNJ-16241199; NSC773264), adavosertib (NSC754352), TP-3654 (NSC805149), carboplatin (NSC241240), KSQ-4279 (NSC840948), and staurosporine (NSC755774) were obtained from the National Cancer Institute (NCI) Developmental Therapeutics Program Chemical Repository (34). The FDA-approved anticancer drug set is available from the NCI Developmental Therapeutics Program. […] The stock solutions were prepared in dimethyl sulfoxide (DMSO, Sigma-Aldrich, St. Louis, MO, cat. D2650) at 800-fold the tested concentration and stored at -70 degrees C prior to their use. All drugs and investigational agents were tested over a range starting from a high concentration at or near the clinical Cmax and decreasing in half-log increments. If the clinical Cmax for an agent had not been determined, the highest concentration tested was 10 microM.
2.3 Cell Culture. All cells were maintained in an incubator at 37 degrees C and 5% CO2 with 95% humidity. The PDC lines were cultured according to standard operating procedures established by the NCI PDMR. All PDCs were thawed and cultured in Matrigel-coated flasks prepared with a working solution of 1X Ham's F-12 nutrient mix, without supplementation (Invitrogen, cat. 11765054), 100 U/mL penicillin-streptomycin (Invitrogen, cat. 15140122), and 2.5% Matrigel (Corning Inc., cat. 354248) for the first three passages. The 857933-349-R-J2-PDC line was cultured in 6C/Colon 1B media, which includes advanced DMEM/F-12 (Thermo Fisher Scientific, cat. 12634028), 10 mM HEPES (Thermo Fisher Scientific, cat. 15630080), 1X GlutaMAX supplement (Thermo Fisher Scientific, cat. 35050061), 0.1 mg/mL primocin (InvivoGen, cat. ant-pm-2), 10% defined fetal bovine serum, heat inactivated (HyClone Laboratories Inc., cat. SH30070.03HI), 50% L-WRN conditioned media (ATCC, cat. CRL-3276), 1.25 mM N-Acetyl-L-cysteine (Sigma-Aldrich, cat. A9165), 10 mM nicotinamide (Sigma-Aldrich, cat. N0636), 1X B-27 supplement (Thermo Fisher Scientific, cat. 17504044), 1X N-2 supplement (Thermo Fisher Scientific, cat. 17502048), 10 microM Y-27632 dihydrochloride (Tocris Bioscience, cat. 1254), and 50 ng/mL human EGF recombinant protein (Thermo Fisher Scientific, cat. PHG0311). The 485176-168-R4-J1-PDC line was cultured in Panc media, which includes all 6C/Colon 1B media components plus 100 ng/mL human FGF-10 (Thermo Fisher Scientific, cat. 100-26), 500 nM SB-431542 (Selleckchem, cat. S1067), and gastrin (Tocris, cat. 3006).
[…]

[1] = second compound 0.0316 µM, first compound 0.0316 µM
[2] = second compound 0.0316 µM, first compound 0.1 µM
[3] = second compound 0.0316 µM, first compound 0.316 µM
[4] = second compound 0.0316 µM, first compound 1 µM
[5] = second compound 0.0316 µM, first compound 3.16 µM
[6] = second compound 0.0316 µM, first compound 10 µM
[7] = second compound 0.1 µM, first compound 0.0316 µM
[8] = second compound 0.1 µM, first compound 0.1 µM
[9] = second compound 0.1 µM, first compound 0.316 µM
[10] = second compound 0.1 µM, first compound 1 µM
[11] = second compound 0.1 µM, first compound 3.16 µM
[12] = second compound 0.1 µM, first compound 10 µM
[13] = second compound 0.316 µM, first compound 0.0316 µM
[14] = second compound 0.316 µM, first compound 0.1 µM
[15] = second compound 0.316 µM, first compound 0.316 µM
[16] = second compound 0.316 µM, first compound 1 µM
[17] = second compound 0.316 µM, first compound 3.16 µM
[18] = second compound 0.316 µM, first compound 10 µM
[19] = second compound 1 µM, first compound 0.0316 µM
[20] = second compound 1 µM, first compound 0.1 µM
[21] = second compound 1 µM, first compound 0.316 µM
[22] = second compound 1 µM, first compound 1 µM
[23] = second compound 1 µM, first compound 3.16 µM
[24] = second compound 1 µM, first compound 10 µM
[25] = second compound 3.16 µM, first compound 0.0316 µM
[26] = second compound 3.16 µM, first compound 0.1 µM
[27] = second compound 3.16 µM, first compound 0.316 µM
[28] = second compound 3.16 µM, first compound 1 µM
[29] = second compound 3.16 µM, first compound 3.16 µM
[30] = second compound 3.16 µM, first compound 10 µM
[31] = second compound 10 µM, first compound 0.0316 µM
[32] = second compound 10 µM, first compound 0.1 µM
[33] = second compound 10 µM, first compound 0.316 µM
[34] = second compound 10 µM, first compound 1 µM
[35] = second compound 10 µM, first compound 3.16 µM
[36] = second compound 10 µM, first compound 10 µM

CC1COCCN1c1cc(C2(O)CC3CCC(C2)O3)c2cnn(-c3ccn[nH]3)c2n1 (stereo unspecified) + CN(C)c1ccc(Nc2c3ccc(NC(=O)CCN4CCCC4)cc3nc3cc(NC(=O)CCN4CCCC4)ccc23)cc1 was tested, and the IC50 (second compound 0.0316 µM) was 82.7 nM, the IC50 (second compound 0.1 µM) was 85.2 nM and the IC50 (second compound 0.316 µM) was 74.5 nM. It also gave an IC50 (second compound 1 µM) of 65.1 nM, an IC50 (second compound 3.16 µM) of 56.7 nM and an IC50 (second compound 10 µM) of 59.9 nM. For the same compound, the viability, T/C [1] was 84.2%, the viability, T/C [2] was 43.3% and the viability, T/C [3] was 27%. The viability, T/C [4] was 25.3%, the viability, T/C [5] was 31.2% and the viability, T/C [6] was 20%. The viability, T/C [7] was 77.4%, the viability, T/C [8] was 45% and the viability, T/C [9] was 31.4%. It also gave a viability, T/C [10] of 25.1%, a viability, T/C [11] of 27.5% and a viability, T/C [12] of 18.4%. The viability, T/C [13] was 68.8%, the viability, T/C [14] was 42.7% and the viability, T/C [15] was 30.8%. The viability, T/C [16] was 27.8%, the viability, T/C [17] was 24.2% and the viability, T/C [18] was 19.6%. It also gave a viability, T/C [19] of 68.2%, a viability, T/C [20] of 39.5% and a viability, T/C [21] of 23.4%. The viability, T/C [22] was 26.6%, the viability, T/C [23] was 21.5% and the viability, T/C [24] was 19.5%. The viability, T/C [25] was 62.3%, the viability, T/C [26] was 38.5% and the viability, T/C [27] was 24.3%. It also gave a viability, T/C [28] of 22.6%, a viability, T/C [29] of 22.6% and a viability, T/C [30] of 15.6%. It also gave a viability, T/C [31] of 65.8%, a viability, T/C [32] of 37.6% and a viability, T/C [33] of 23.5%. The viability, T/C [34] was 22.9%, the viability, T/C [35] was 20.1% and the viability, T/C [36] was 15.7%.

CC1COCCN1c1cc(C2(S(C)(=N)=O)CC2)nc(-c2ccnc3[nH]ccc23)n1 (stereo unspecified) + CN(C)c1ccc(Nc2c3ccc(NC(=O)CCN4CCCC4)cc3nc3cc(NC(=O)CCN4CCCC4)ccc23)cc1 showed an IC50 (second compound 0.0316 µM) of 2650 nM, an IC50 (second compound 0.1 µM) of 2760 nM and an IC50 (second compound 0.316 µM) of 2310 nM. It also gave an IC50 (second compound 1 µM) of 2230 nM, an IC50 (second compound 3.16 µM) of 1900 nM and an IC50 (second compound 10 µM) of 1920 nM. For the same compound, the viability, T/C [1] was 106%, the viability, T/C [2] was 91.5% and the viability, T/C [3] was 97.2%. For the same compound, the viability, T/C [4] was 80.9%, the viability, T/C [5] was 44.2% and the viability, T/C [6] was 29.4%. It also gave a viability, T/C [7] of 97.8%, a viability, T/C [8] of 103% and a viability, T/C [9] of 81.5%. For the same compound, the viability, T/C [10] was 89.4%, the viability, T/C [11] was 44.7% and the viability, T/C [12] was 25.2%. For the same compound, the viability, T/C [13] was 90.3%, the viability, T/C [14] was 90.4% and the viability, T/C [15] was 83.2%. The viability, T/C [16] was 74.7%, the viability, T/C [17] was 40.4% and the viability, T/C [18] was 29.6%. For the same compound, the viability, T/C [19] was 90.4%, the viability, T/C [20] was 82.7% and the viability, T/C [21] was 77.5%. The viability, T/C [22] was 69.5%, the viability, T/C [23] was 41.1% and the viability, T/C [24] was 22.5%. The viability, T/C [25] was 84.2%, the viability, T/C [26] was 90.7% and the viability, T/C [27] was 86.1%. It also gave a viability, T/C [28] of 69.7%, a viability, T/C [29] of 34.3% and a viability, T/C [30] of 23.4%. It also gave a viability, T/C [31] of 95.8%, a viability, T/C [32] of 81.4% and a viability, T/C [33] of 88.6%. The viability, T/C [34] was 67%, the viability, T/C [35] was 36.9% and the viability, T/C [36] was 24.9%.

With O=C(c1cc(Cc2n[nH]c(=O)c3ccccc23)ccc1F)N1CCN(C(=O)C2CC2)CC1 + CN(C)c1ccc(Nc2c3ccc(NC(=O)CCN4CCCC4)cc3nc3cc(NC(=O)CCN4CCCC4)ccc23)cc1 the IC50 (second compound 0.0316 µM) was over 10000 nM, the IC50 (second compound 0.1 µM) was over 10000 nM and the IC50 (second compound 0.316 µM) was over 10000 nM. The IC50 (second compound 1 µM) was over 10000 nM, the IC50 (second compound 3.16 µM) was over 10000 nM and the IC50 (second compound 10 µM) was over 10000 nM. It also gave a viability, T/C [1] of 104%, a viability, T/C [2] of 103% and a viability, T/C [3] of 94.5%. For the same compound, the viability, T/C [4] was 100%, the viability, T/C [5] was 102% and the viability, T/C [6] was 88.8%. The viability, T/C [7] was 95%, the viability, T/C [8] was 101% and the viability, T/C [9] was 102%. It also gave a viability, T/C [10] of 104%, a viability, T/C [11] of 98% and a viability, T/C [12] of 81.4%. For the same compound, the viability, T/C [13] was 87.6%, the viability, T/C [14] was 93.5% and the viability, T/C [15] was 101%. For the same compound, the viability, T/C [16] was 101%, the viability, T/C [17] was 111% and the viability, T/C [18] was 82%. The viability, T/C [19] was 85.3%, the viability, T/C [20] was 86.6% and the viability, T/C [21] was 89.9%. It also gave a viability, T/C [22] of 104%, a viability, T/C [23] of 92.4% and a viability, T/C [24] of 66.3%. For the same compound, the viability, T/C [25] was 93.7%, the viability, T/C [26] was 91% and the viability, T/C [27] was 90.5%. For the same compound, the viability, T/C [28] was 94.2%, the viability, T/C [29] was 95.2% and the viability, T/C [30] was 70.5%. It also gave a viability, T/C [31] of 78.8%, a viability, T/C [32] of 81.9% and a viability, T/C [33] of 81.9%. The viability, T/C [34] was 90.4%, the viability, T/C [35] was 86.3% and the viability, T/C [36] was 64.5%.
